Earlier results on one compound are cited in patent US12059317B2, “Multi-phase oral care compositions” (The Procter & Gamble Company, priority 2019, dated 2024).

Read-outs that look alike come from different tables or passages of the source.

The conditions of the series: for Solubility in Water (number of parts by weight per 100 parts by weight of water): hydrophilic bleaching agent particle of the composition, PVP complex value estimated from supplier data sheet on PVP K-30.

In the case of `NC(N)=O.OO` [Urea Peroxide, Urea Hydrogen Peroxide Adduct], the “Solubility in Water (number of parts by weight per 100 parts by weight of water)” value is given as 80 parts by weight per 100 parts by weight of water. In addition, the Solubility in water (at 20 C, per Safety Data Sheet from supplier) is 800 grams per liter. Further, the Solubility in water (footnote values from supplier data sheets / Wikipedia) was 80 parts per 100 parts of water. Also, the “Solubility in Water (number of parts by weight per 100 parts by weight of water)” value (listed as urea peroxide) is on record as 80 parts by weight per 100 parts.
